2 compounds from ChEMBL document CHEMBL5723588, “Data for DCP probe JNJ-3738” (2024) can be followed below.

Assay [1] deals with T1, CDK7/Cyclin H/MNAT1 (Homo sapiens) (UniProt P51946+P50613+P51948). As to the kind of experiment: Biochemical CDK7 assay (KIapp) ( CDK7 catalyzed, ATP-dependent, phosphorylation of a peptide substrate derived from RNA Pol II (CDK7/9-tide). Coupled via lactate dehydrogenase (LDH) and pyruvate kinase (PK) to lactate and NAD+ production, with concomitant depletion of NADH. Continuous coupled assay measures CDK7 catalytic activity through the diminished absorbance intensity at 340 nm that corresponds with NADH depletion.). It is filed as functional.

In assay [2] the target is T1, CDK7/Cyclin H/MNAT1 (Homo sapiens). Briefly: Biochemical CDK7 assay (kinact/KIapp) ( CDK7 catalyzed, ATP-dependent, phosphorylation of a peptide substrate derived from RNA Pol II (CDK7/9-tide). Coupled via lactate dehydrogenase (LDH) and pyruvate kinase (PK) to lactate and NAD+ production, with concomitant depletion of NADH. Continuous coupled assay measures CDK7 catalytic activity through the diminished absorbance intensity at 340 nm that corresponds with NADH depletion.). Format: functional.

Assay [3] addresses T2, Cyclin-dependent kinase 7 (Homo sapiens, UniProt P50613). Briefly: In vitro pharmacodynamics: p-RNA pol II Ser-5 (wtCDK7) ( QuantiGene Plex Gene Expression Assay: downregulation at the messenger level of superenhancer driven genes. The level of phosphorylation of Serine 5 on RNA pol II Vs totalRNA pol II is determined. The level of p-RNA pol II Ser-5 detected and stained with primary (a specific rabbit Phospho-Rpb1 CTD (Ser5) antibody) and secondary antibodies (a goat anti rabbit Alexa Fluor 488 conjugated secondary antibody) after 3 hrs incubation with probe.). Format: functional.

In assay [4] the target is Cyclin-dependent kinase 7 (Homo sapiens, UniProt P50613, C312S). Briefly: In vitro pharmacodynamics: p-RNA pol II Ser-5 (CDK7 C312S) ( QuantiGene Plex Gene Expression Assay: downregulation at the messenger level of superenhancer driven genes. The level of phosphorylation of Serine 5 on RNA pol II Vs totalRNA pol II is determined. The level of p-RNA pol II Ser-5 detected and stained with primary (a specific rabbit Phospho-Rpb1 CTD (Ser5) antibody) and secondary antibodies (a goat anti rabbit Alexa Fluor 488 conjugated secondary antibody) after 3 hrs incubation with probe.). Format: functional.
Cyclin-dependent kinase 7 (Homo sapiens, UniProt P50613, C312S), sequence (P50613 2-346 C312S limits assumed): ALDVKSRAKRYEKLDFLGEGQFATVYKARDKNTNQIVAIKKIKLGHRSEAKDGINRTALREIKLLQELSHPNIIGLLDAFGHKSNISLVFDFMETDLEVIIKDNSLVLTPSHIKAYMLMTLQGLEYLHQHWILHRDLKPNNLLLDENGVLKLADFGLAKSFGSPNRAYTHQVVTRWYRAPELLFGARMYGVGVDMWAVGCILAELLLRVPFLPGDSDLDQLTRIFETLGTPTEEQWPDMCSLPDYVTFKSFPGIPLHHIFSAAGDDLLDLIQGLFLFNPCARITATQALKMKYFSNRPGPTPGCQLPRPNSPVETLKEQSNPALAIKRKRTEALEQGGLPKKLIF

Assay [5] deals with Cyclin-dependent kinase 2 (Homo sapiens) (UniProt P24941). As to the kind of experiment: % inhibition of CDK2 in the DiscoverX Kinase panel at 1.0 µM. The note with it: Compound concentration 1.0 uM.
In assay [6] the target is Cyclin-dependent kinase 3 (Homo sapiens) (UniProt Q00526). Briefly: % inhibition of CDK3 in the DiscoverX Kinase panel at 1.0 µM. The note with it: Compound concentration 1.0 uM.
The target of assay [7] is Cyclin-dependent kinase 4 (Homo sapiens) (UniProt P11802). Briefly: % inhibition of CDK4 in the DiscoverX Kinase panel at 1.0 µM. The note with it: Compound concentration 1.0 uM.
Cyclin-dependent kinase 4 (Homo sapiens), sequence (P11802 whole entry): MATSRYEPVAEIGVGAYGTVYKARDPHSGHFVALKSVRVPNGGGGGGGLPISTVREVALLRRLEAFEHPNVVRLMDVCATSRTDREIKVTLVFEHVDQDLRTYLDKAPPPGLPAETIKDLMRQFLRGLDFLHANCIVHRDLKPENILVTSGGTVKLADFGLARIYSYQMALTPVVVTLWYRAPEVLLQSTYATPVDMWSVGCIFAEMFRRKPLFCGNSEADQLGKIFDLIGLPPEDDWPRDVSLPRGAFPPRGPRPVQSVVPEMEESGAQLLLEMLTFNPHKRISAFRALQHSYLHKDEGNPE
Assay [8] concerns the target Cyclin-dependent kinase 5 (Homo sapiens) (UniProt Q00535). Briefly: % inhibition of CDK5 in the DiscoverX Kinase panel at 1.0 µM. Particulars: Compound concentration 1.0 uM.
The target of assay [9] is T2, Cyclin-dependent kinase 7. As to the kind of experiment: % inhibition of CDK7 in the DiscoverX Kinase panel at 1.0 µM.
For assay [10], the target named is Cyclin-dependent kinase 8 (Homo sapiens) (UniProt P49336). Briefly: % inhibition of CDK8 in the DiscoverX Kinase panel at 1.0 µM. The note with it: Compound concentration 1.0 uM.
Cyclin-dependent kinase 8 (Homo sapiens), sequence (P49336 whole entry): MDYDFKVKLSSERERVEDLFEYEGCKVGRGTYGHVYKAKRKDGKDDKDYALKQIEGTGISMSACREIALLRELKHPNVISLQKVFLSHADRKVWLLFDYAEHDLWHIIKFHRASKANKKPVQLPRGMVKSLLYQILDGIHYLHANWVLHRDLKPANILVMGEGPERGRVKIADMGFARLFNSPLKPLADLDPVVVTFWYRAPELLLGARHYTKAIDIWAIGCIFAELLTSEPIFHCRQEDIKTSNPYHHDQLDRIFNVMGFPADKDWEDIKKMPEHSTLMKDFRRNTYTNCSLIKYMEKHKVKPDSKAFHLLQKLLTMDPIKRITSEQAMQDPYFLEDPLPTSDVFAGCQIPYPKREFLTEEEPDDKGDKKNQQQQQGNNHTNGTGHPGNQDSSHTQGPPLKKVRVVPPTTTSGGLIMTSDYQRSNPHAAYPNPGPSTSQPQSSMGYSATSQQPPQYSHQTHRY
Assay [11] deals with T3, Cyclin-dependent kinase 9 (Homo sapiens, UniProt P50750). As to the kind of experiment: % inhibition of CDK9 in the DiscoverX Kinase panel at 1.0 µM.
T3 sequence (P50750 whole entry): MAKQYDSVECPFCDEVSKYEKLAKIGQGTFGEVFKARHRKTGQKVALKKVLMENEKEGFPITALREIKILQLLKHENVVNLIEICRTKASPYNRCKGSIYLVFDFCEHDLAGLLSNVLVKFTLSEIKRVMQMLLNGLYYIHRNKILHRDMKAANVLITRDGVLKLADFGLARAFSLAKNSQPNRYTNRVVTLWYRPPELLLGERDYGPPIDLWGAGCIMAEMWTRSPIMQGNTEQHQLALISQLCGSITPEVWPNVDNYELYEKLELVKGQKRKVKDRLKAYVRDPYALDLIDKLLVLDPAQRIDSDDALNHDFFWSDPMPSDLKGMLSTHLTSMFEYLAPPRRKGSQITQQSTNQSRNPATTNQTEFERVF
Assay [12] has as its target T4, Cyclin-dependent kinase 11A/B (Homo sapiens) (UniProt Q9UQ88+P21127). As to the kind of experiment: % inhibition of CDK11 in the DiscoverX Kinase panel at 1.0 µM. Format: protein assay. Particulars: Compound concentration 1.0 uM.
Assay [13] addresses Cyclin-dependent kinase 11B (Homo sapiens) (UniProt P21127). As to the kind of experiment: % inhibition of CDK11b in the DiscoverX Kinase panel at 1.0 µM. Particulars: Compound concentration 1.0 uM.
Assay [14] deals with Cyclin-dependent kinase 13 (Homo sapiens) (UniProt Q14004). As to the kind of experiment: % inhibition of CDK13 in the DiscoverX Kinase panel at 1.0 µM. The note with it: Compound concentration 1.0 uM.
Cyclin-dependent kinase 13 (Homo sapiens), sequence (Q14004 whole entry, looked up): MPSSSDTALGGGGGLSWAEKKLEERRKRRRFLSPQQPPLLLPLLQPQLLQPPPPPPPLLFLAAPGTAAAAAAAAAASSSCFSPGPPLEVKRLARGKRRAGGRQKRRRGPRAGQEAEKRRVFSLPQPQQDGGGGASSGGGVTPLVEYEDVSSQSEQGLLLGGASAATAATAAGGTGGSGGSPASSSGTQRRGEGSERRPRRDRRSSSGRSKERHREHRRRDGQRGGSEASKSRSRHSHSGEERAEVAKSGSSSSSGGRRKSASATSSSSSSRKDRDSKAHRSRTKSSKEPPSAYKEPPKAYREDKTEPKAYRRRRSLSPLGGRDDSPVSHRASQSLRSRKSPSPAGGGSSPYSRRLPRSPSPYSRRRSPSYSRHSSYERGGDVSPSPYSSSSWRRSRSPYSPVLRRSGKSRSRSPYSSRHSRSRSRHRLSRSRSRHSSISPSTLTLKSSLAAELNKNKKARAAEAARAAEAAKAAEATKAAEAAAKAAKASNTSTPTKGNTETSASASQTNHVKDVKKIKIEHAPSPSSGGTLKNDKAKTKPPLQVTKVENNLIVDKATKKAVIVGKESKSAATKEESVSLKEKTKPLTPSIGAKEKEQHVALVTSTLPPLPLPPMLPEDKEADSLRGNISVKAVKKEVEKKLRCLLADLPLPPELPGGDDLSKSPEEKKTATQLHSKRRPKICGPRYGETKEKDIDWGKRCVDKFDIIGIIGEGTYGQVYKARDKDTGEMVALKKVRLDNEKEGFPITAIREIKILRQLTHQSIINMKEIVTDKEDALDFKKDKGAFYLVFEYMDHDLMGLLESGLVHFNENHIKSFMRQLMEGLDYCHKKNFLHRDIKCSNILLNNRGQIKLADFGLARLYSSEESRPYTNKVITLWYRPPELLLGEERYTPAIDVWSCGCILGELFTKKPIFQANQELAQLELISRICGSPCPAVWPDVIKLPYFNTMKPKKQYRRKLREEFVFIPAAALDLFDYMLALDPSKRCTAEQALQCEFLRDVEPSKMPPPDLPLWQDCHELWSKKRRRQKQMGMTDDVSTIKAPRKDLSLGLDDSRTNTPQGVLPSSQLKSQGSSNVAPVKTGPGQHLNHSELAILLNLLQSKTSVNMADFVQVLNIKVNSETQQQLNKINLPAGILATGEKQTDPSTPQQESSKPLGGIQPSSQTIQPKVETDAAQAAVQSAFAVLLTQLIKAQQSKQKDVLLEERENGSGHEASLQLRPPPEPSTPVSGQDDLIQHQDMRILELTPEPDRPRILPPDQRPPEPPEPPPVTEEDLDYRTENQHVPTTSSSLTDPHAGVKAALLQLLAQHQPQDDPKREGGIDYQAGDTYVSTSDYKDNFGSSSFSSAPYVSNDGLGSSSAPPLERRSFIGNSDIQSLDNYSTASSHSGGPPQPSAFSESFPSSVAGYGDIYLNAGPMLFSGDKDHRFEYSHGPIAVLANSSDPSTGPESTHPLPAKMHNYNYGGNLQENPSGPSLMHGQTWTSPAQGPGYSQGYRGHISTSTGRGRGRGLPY
In assay [15] the target is Cyclin-dependent kinase 14 (Homo sapiens) (UniProt O94921). Briefly: % inhibition of CDK14 in the DiscoverX Kinase panel at 1.0 µM. The note with it: Compound concentration 1.0 uM.
Cyclin-dependent kinase 14 (Homo sapiens), sequence (O94921 whole entry): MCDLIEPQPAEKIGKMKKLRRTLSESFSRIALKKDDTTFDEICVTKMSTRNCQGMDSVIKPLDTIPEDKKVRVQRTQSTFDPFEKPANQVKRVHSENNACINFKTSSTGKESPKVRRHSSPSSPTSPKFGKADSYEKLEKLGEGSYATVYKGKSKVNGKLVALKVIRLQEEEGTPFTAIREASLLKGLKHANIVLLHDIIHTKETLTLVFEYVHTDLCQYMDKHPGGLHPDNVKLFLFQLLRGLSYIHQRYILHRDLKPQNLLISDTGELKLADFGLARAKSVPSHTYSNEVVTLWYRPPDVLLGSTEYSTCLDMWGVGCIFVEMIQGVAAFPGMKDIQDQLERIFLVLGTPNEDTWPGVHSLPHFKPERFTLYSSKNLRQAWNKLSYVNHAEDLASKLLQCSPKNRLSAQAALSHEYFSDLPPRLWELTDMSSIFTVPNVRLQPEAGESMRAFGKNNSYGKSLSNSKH
Assay [16] concerns the target Cyclin-dependent kinase 15 (Homo sapiens) (UniProt Q96Q40). As to the kind of experiment: % inhibition of CDK15 in the DiscoverX Kinase panel at 1.0 µM. Particulars: Compound concentration 1.0 uM.
For assay [17], the target named is Cyclin-dependent kinase 16 (Homo sapiens) (UniProt Q00536). Briefly: % inhibition of CDK16 in the DiscoverX Kinase panel at 1.0 µM. The note with it: Compound concentration 1.0 uM.
Cyclin-dependent kinase 16 (Homo sapiens), sequence (Q00536 whole entry): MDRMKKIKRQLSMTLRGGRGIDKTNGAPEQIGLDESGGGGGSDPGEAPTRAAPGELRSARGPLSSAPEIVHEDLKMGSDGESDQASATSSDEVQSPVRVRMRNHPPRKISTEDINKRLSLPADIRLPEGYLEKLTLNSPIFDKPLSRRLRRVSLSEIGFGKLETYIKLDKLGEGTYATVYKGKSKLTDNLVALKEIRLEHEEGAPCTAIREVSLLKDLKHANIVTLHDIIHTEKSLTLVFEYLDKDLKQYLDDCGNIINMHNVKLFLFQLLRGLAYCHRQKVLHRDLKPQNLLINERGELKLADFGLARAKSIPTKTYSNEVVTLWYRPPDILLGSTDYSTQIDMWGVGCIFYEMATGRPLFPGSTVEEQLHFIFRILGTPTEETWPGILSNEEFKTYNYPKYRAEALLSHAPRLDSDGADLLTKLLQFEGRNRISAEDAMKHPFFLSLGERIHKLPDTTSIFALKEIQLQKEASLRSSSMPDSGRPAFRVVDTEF
In assay [18] the target is Cyclin-dependent kinase 17 (Homo sapiens) (UniProt Q00537). Briefly: % inhibition of CDK17 in the DiscoverX Kinase panel at 1.0 µM. The note with it: Compound concentration 1.0 uM.
The target in assay [19] is Cyclin-dependent kinase 18 (Homo sapiens) (UniProt Q07002). As to the kind of experiment: % inhibition of CDK18 in the DiscoverX Kinase panel at 1.0 µM. The note with it: Compound concentration 1.0 uM.
For assay [20], the target named is Cyclin-dependent kinase 1 (Homo sapiens) (UniProt P06493). Briefly: Inhibition of CDK1 at 1.0 µM in the ActivX. The note with it: Compound concentration 1.0 uM.
Assay [21] has as its target Cyclin-dependent kinase 2 (Homo sapiens) (UniProt P24941). As to the kind of experiment: Inhibition of CDK2 at 1.0 µM in the ActivX. Particulars: Compound concentration 1.0 uM.
The target in assay [22] is Cyclin-dependent kinase 4 (Homo sapiens) (UniProt P11802). Briefly: Inhibition of CDK4 at 1.0 µM in the ActivX. The note with it: Compound concentration 1.0 uM.
Assay [23] addresses Cyclin-dependent kinase 5 (Homo sapiens) (UniProt Q00535). Briefly: Inhibition of CDK5 at 1.0 µM in the ActivX. The note with it: Compound concentration 1.0 uM.
The target of assay [24] is Cyclin-dependent kinase 6 (Homo sapiens) (UniProt Q00534). As to the kind of experiment: Inhibition of CDK6 at 1.0 µM in the ActivX. The note with it: Compound concentration 1.0 uM.
Assay [25] concerns the target T2, Cyclin-dependent kinase 7. As to the kind of experiment: Inhibition of CDK7 at 1.0 µM in the ActivX. Particulars: Compound concentration 1.0 uM.
Assay [26] deals with Cyclin-dependent kinase 8 (Homo sapiens) (UniProt P49336). As to the kind of experiment: Inhibition of CDK8 at 1.0 µM in the ActivX. Particulars: Compound concentration 1.0 uM.
The target in assay [27] is T3, Cyclin-dependent kinase 9. As to the kind of experiment: Inhibition of CDK9 at 1.0 µM in the ActivX. The note with it: Compound concentration 1.0 uM.
The target in assay [28] is Cyclin-dependent kinase 10 (Homo sapiens) (UniProt Q15131). Briefly: Inhibition of CDK10 at 1.0 µM in the ActivX. The note with it: Compound concentration 1.0 uM.
In assay [29] the target is T4, Cyclin-dependent kinase 11A/B (Homo sapiens). Briefly: Inhibition of CDK11 at 1.0 µM in the ActivX. It is filed as protein assay. The note with it: Compound concentration 1.0 uM.
Assay [30] deals with Cyclin-dependent kinase 11B (Homo sapiens) (UniProt P21127). As to the kind of experiment: Inhibition of CDK11b at 1.0 µM in the ActivX. The note with it: Compound concentration 1.0 uM.
For assay [31], the target named is Cyclin-dependent kinase 12 (Homo sapiens) (UniProt Q9NYV4). As to the kind of experiment: Inhibition of CDK12 at 1.0 µM in the ActivX. The note with it: Compound concentration 1.0 uM.
The target of assay [32] is Cyclin-dependent kinase 13 (Homo sapiens) (UniProt Q14004). Briefly: Inhibition of CDK13 at 1.0 µM in the ActivX. Particulars: Compound concentration 1.0 uM.
Assay [33] has as its target Cyclin-dependent kinase 14 (Homo sapiens) (UniProt O94921). Briefly: Inhibition of CDK14 at 1.0 µM in the ActivX. Particulars: Compound concentration 1.0 uM.
For assay [34], the target named is Cyclin-dependent kinase 15 (Homo sapiens) (UniProt Q96Q40). Briefly: Inhibition of CDK15 at 1.0 µM in the ActivX. Particulars: Compound concentration 1.0 uM.
Cyclin-dependent kinase 15 (Homo sapiens), sequence (Q96Q40 whole entry): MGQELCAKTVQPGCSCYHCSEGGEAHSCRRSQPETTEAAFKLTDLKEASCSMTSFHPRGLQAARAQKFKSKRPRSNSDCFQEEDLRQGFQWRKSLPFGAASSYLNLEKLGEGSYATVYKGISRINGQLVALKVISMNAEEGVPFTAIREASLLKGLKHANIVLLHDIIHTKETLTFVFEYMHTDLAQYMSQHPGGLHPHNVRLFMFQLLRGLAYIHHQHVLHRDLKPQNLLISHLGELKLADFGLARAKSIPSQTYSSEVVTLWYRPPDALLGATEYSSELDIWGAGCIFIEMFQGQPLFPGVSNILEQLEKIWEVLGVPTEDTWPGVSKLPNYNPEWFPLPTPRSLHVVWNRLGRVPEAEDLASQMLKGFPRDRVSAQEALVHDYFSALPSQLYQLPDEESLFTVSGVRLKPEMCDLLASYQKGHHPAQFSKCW
Assay [35] addresses Cyclin-dependent kinase 16 (Homo sapiens) (UniProt Q00536). Briefly: Inhibition of CDK16 at 1.0 µM in the ActivX. Particulars: Compound concentration 1.0 uM.
The target in assay [36] is Cyclin-dependent kinase 17 (Homo sapiens) (UniProt Q00537). As to the kind of experiment: Inhibition of CDK17 at 1.0 µM in the ActivX. The note with it: Compound concentration 1.0 uM.
In assay [37] the target is Cyclin-dependent kinase 18 (Homo sapiens) (UniProt Q07002). Briefly: Inhibition of CDK18 at 1.0 µM in the ActivX. Particulars: Compound concentration 1.0 uM.
Assay [38] addresses Cyclin-dependent kinase 20 (Homo sapiens) (UniProt Q8IZL9). Briefly: Inhibition of CDK20 at 1.0 µM in the ActivX. Particulars: Compound concentration 1.0 uM.
Assay [39] concerns the target Calcium/calmodulin-dependent protein kinase kinase 2 (Homo sapiens) (UniProt Q96RR4). Briefly: Inhibition of CAMKK2 at 1.0 µM in the ActivX. The note with it: Compound concentration 1.0 uM.
Assay [40] deals with Serine/threonine-protein kinase 16 (Homo sapiens) (UniProt O75716). Briefly: Inhibition of MPSK1 at 1.0 µM in the ActivX. The note with it: Compound concentration 1.0 uM.
Assay [41] addresses T2, Cyclin-dependent kinase 7. As to the kind of experiment: Fluorescent end-point assay ( KM ATP app ~30 µM). Format: functional.

SMILES strings stand for the structures. pIC50: −log10 of the molar value. Active and inactive are the calls of the source. The calls are words filed in the database; no cut-off is given here.

The IC50 is the concentration that gives 50% inhibition. What is called inhibition is the share of the control response that was lost under treatment. What is called pIC50 is the IC50 on a negative log10 scale, so that one unit is a factor of ten. Higher therefore signals a small IC50.

T2 sequence (P50613 whole entry): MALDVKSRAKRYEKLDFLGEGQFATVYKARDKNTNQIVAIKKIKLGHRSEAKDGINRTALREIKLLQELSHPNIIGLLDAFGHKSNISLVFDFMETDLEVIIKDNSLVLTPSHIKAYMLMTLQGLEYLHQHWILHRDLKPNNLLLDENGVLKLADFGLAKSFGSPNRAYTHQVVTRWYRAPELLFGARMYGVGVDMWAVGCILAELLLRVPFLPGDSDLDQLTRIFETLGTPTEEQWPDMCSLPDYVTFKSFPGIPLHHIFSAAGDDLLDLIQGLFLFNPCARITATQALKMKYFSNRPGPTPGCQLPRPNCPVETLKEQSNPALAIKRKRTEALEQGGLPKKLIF

Regarding `CC#CC(=O)N1CC(N2CCC(c3cc(C)c4c(c3)Nc3ncnc(N5CCS(=O)(=O)CC5)c3[C@@H](C)O4)CC2)C1`, the KIapp in assay [1] was 31 nM. The kinact/KIapp in assay [2] was 2600 M⁻¹ s⁻¹. In addition, the half-inhibitory concentration (IC50) in assay [3] was 58 nM (active); in assay [4] it was > 10000 nM (not active). Besides, the inhibition in assay [5] is 10%; in [6] it was 14%; in assay [7], 10%; in assay [8], 5%; in assay [9] (Compound concentration 1.0 uM), 99%; in [10] it was > 2%. For the same compound, the inhibition in assay [11] (Compound concentration 1.0 uM) is 36%; in [12], 11%; in assay [13] it was 0%; in [14], 12%; in assay [15], 5%; in [16] it was 21%. Moreover, the inhibition is 5% in assay [17]; 2% in assay [18]; 25% in assay [19]; 11% in assay [20]; 6% in assay [21]; 0% in assay [22]. Also, the inhibition came to 2% in assay [23]; 0% in [24]; 95% in assay [25]; 7% in [26]; 45% in assay [27]; 3% in assay [28]. The inhibition worked out at 7% in [29]; 5% in assay [30]; 11% in [31]; 13% in [32]; 11% in [33]; 15% in [34]. In addition, the inhibition stood at 1% in assay [35]; 17% in assay [36]; 19% in assay [37]; 5% in [38]; 70% in assay [39]; 65% in assay [40]. In addition, the negative-log IC50 (pIC50) in assay [9] was 8.42; in assay [11] it was 6.03.

Turning to `CC(=O)N1CC(N2CCC(c3cc(C)c4c(c3)Nc3ncnc(N5CCS(=O)(=O)CC5)c3[C@@H](C)O4)CC2)C1`, the IC50 in [3] was > 10000 nM (not active); in [4], > 10000 nM (not active); in [41], ~200 nM (not active).
